# Assay results taken from ChEMBL document CHEMBL3639215, “Piperazine compound having a PGDS inhibitory effect” (2014).
# Molecular target: Hematopoietic prostaglandin D synthase (Homo sapiens, UniProt O60760)
# Assay: Inhibiting Action: The test was carried out according to the method of Urade, Y. et al. (J. Biol. Chem., 262, 3820-3825, (1987)). More specifically, the reaction mixture (49 μL) containing 100 mM Tris-HCl (pH 8.0), 1 mM reduced glutathione, 0.1 mg/mL γ-globulin, and human H-PGDS (q.s.), and a compound (final concentration: 0.01-100 μM) was preincubated at 25C. for 5 minutes. A DMSO solution (final concentration: 1%) was added to the solvent control group. Subsequently, 1 μL of [14C] prostaglandin H2 (final concentration: 10 μM) was added to start the reaction. One minute after the start of the reaction, 250 μL of a reaction stop solution (diethylether/methanol/1 M citric acid (30/4/1) at a temperature of −20C. was added to stop the reaction. After the reaction was stopped, 50 μL of the upper-layer portion (organic solvent layer) was applied to a TLC plate and developed at −20C. for 45 minutes (developing solvent: diethylether/methanol/acetic acid (90/2/1)).
# Chain of Hematopoietic prostaglandin D synthase (O60760 whole entry): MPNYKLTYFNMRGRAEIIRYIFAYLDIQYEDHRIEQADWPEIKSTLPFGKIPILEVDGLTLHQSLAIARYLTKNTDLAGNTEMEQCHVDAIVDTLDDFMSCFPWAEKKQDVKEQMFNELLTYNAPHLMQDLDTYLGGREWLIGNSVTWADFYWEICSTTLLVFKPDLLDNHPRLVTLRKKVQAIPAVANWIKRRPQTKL
row,Structure (SMILES),IC50 [nM]
1,O=C(Nc1nc2ccc(Br)cc2s1)N1CCN(C(=O)c2cccc(F)c2)CC1,106
2,Cc1cc2nc(NC(=O)N3CCN(C(=O)c4cccc(F)c4)CC3)sc2cc1C,222
3,Cc1ccc2nc(NC(=O)N3CCN(C(=O)c4cccc(F)c4)CC3)sc2c1,260
4,COc1ccc2nc(NC(=O)N3CCN(C(=O)c4cccc(F)c4)CC3)sc2c1,318
5,O=C(Nc1nc2ccc(Cl)cc2s1)N1CCN(C(=O)c2cccc(F)c2)CC1,204
6,O=C(NCCN1CCOCC1)c1ccc(N2CCC(NC(=O)N3CCN(C(=O)c4ccc[nH]4)CC3)CC2)cc1,334
7,Cc1cc(C)c(C(=O)N2CCN(C(=O)NC3CCN(c4ccc(C(=O)NCCN5CCOCC5)cc4)CC3)CC2)[nH]1,> 1000
8,Cn1ccc(C(=O)N2CCN(C(=O)NC3CCN(c4ccc(C(=O)NCCN5CCOCC5)cc4)CC3)CC2)c1,> 1000
9,O=C(NCCN1CCOCC1)c1ccc(N2CCC(NC(=O)N3CCN(C(=O)c4cccs4)CC3)CC2)cc1,201
10,O=C(NCCN1CCOCC1)c1ccc(N2CCC(NC(=O)N3CCN(C(=O)c4ccsc4)CC3)CC2)cc1,327
11,O=C(NCCN1CCOCC1)c1ccc(N2CCC(NC(=O)N3CCN(C(=O)c4ccco4)CC3)CC2)cc1,445
12,O=C(NCCN1CCOCC1)c1ccc(N2CCC(NC(=O)N3CCN(C(=O)c4ccoc4)CC3)CC2)cc1,> 1000
13,O=C(NCCN1CCOCC1)c1ccc(N2CCC(NC(=O)N3CCN(C(=O)c4ccno4)CC3)CC2)cc1,> 1000
14,Cn1ccnc1C(=O)N1CCN(C(=O)NC2CCN(c3ccc(C(=O)NCCN4CCOCC4)cc3)CC2)CC1,> 1000
15,O=C(NCCN1CCOCC1)c1ccc(N2CCC(NC(=O)N3CCN(C(=O)C4CCCC4)CC3)CC2)cc1,> 1000
16,O=C(NCCN1CCOCC1)c1ccc(N2CCC(NC(=O)N3CCN(C(=O)c4ccccc4)CC3)CC2)cc1,249
